Laboratory results from PubChem BioAssay AID1189 (EPA DSSTox, 2008).
Activity calls are given as the source filed them.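 Rule for the calls: active = a tumor-causing dose value with its tumor site reported for any sex and species group of a rodent or other animal cancer study; inconclusive = only studies judged inadequate by the national testing program; inactive = tested in at least one study, none positive.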

Assay: DSSTox (CPDBAS) Carcinogenic Potency Database Summary SingleCellCall Results
Settings: animal chronic carcinogenicity bioassays, CPDB summary call
Description: The Carcinogenic Potency Database (CPDB) is a unique and widely used international resource of the results of over 6500 chronic, long-term animal cancer tests on over 1500 chemical substances. The CPDB provides easy access to the bioassay literature, with qualitative and quantitative analyses of both positive and negative experiments that have been published over the past 50 years in the general literature and by the National Cancer Institute/National Toxicology Program. The CPDB standardizes the diverse literature of cancer bioassays that vary widely in protocol, histopathological examination and nomenclature, and in the published author's choices of what information to provide in their papers. Results are reported in the CPDB for tests in rats, mice, hamsters, dogs, and nonhuman primates, and are based on the most positive result among all experiments for each sex-species. The DSSTox CPDBAS (all species) file incorporates data from the CPDB Summary Tables for the full list of over 1500 chemical substances tested in at least one species. A summary SingleCellCall, based on experimental bioassay results of one or more species, is provided for the entire DSSTox CPDBAS file (see Source URL).
An assignment of categorical carcinogenic activity based on minimal evidence for or against activity. […] Associated TD50 values and tumor site details for the relevant species/sex experiment supporting this overall CPDBAS SingleSiteCall are provided in the full CPDBAS DSSTox file (see Comment) and the corresponding CPDBAS Species Bioassay in PubChem.

| Compound | outcome |
| --- | --- |
| NC(=O)Cc1c([O-])on[n+]1Cc1ccccc1 | active; inactive |
| CCCCCc1cc(O)c2c(c1)OC(C)(C)[C@@H]1CCC(C)=C[C@@H]21 | inactive; active |
| COP(=O)(OC)OC | active |
| CCN(N=O)C(=O)NCC(C)=O | active |
| O=NN1CSCSC1 | inactive |
| C=C1C/C(=C/C)C(=O)O[C@@H]2CCN3CC=C(COC(=O)[C@@]1(O)CO)[C@H]23 | active; inactive |
| O=[N+]([O-])OCC(CO[N+](=O)[O-])O[N+](=O)[O-] | active |
| CC(C)OC(=O)COc1ccc(Cl)cc1Cl | inactive |
| CC(C)O | inactive |
| COc1ccc(N)c(C)c1 | active |
| [O]=[Bi] | inactive; active |
| Nc1cc(S(=O)(=O)O)cc2cc(S(=O)(=O)O)c(N=Nc3ccc(-c4ccc(N=Nc5c(S(=O)(=O)O)cc6cc(S(=O)(=O)O)cc(N)c6c5O)cc4)cc3)c(O)c12 | active |
| Cc1cc(O)c2c(c1O)C(=O)C13C(=C2O)C(=O)C2C(O)C1C1C(O)C3C(=O)C3=C(O)c4c(O)cc(C)c(O)c4C(=O)C321 (stereo not drawn) | active |
| Clc1ccc2c(c1)Oc1ccc(Cl)cc1O2 | inactive |
| CCOc1ccc2c(c1)C(C)=CC(C)(C)N2 | inactive; active |
| FC(F)(F)C(Cl)Cl | active |
| OC(c1ccc(Cl)cc1)(c1ccc(Cl)cc1)C(Cl)(Cl)Cl | active |
| CCCCCCCCCCCCN=C(N)N | inactive |
| Cn1c(N)nc2ncc(-c3ccccc3)cc21 | active |
| CC1CN(N=O)C(=O)NC1=O (stereo not drawn) | inactive |
| CCCC(CCC)C(=O)O | active |
| Nc1nc(N)nc(-c2ccccc2)n1 | inactive; active |
| CCc1nc(N)nc(N)c1-c1ccc(Cl)cc1 | inactive |
| NC(=O)N/N=C/c1ccco1 | inactive |

| Compound | outcome |
| --- | --- |
| COc1cc(OC)c2c3c(c(=O)oc2c1)CCC3=O | inactive |
| CC(=O)OCc1ccccc1 | active; inactive |
| CNNC | active |
| COc1c(Cl)c(Cl)c([N+](=O)[O-])c(Cl)c1Cl | inactive |
| CCCCNNCCCC | active; inactive |
| O=S1(=O)OCCO1 | inactive |
| S=C(NC1CCCCC1)NC1CCCCC1 | inactive; active |
| N | inactive |
| ClCOCc1ccc(COCCl)cc1 | active |
| C#CC(C)(C)NC(=O)c1cc(Cl)cc(Cl)c1 | active |
| CCCCN(CCCC)C(=S)[S-].CCCCN(CCCC)C(=S)[S-].[Ni+2] | inactive; active |
| C=C1C(CCl)(CCl)C2(Cl)C(Cl)C(Cl)C1(Cl)C2(Cl)Cl (stereo not drawn) | active; inactive |
| CCN(CC)CCOc1ccc(C(O)(Cc2ccc(OC)cc2)c2ccccc2)cc1 (stereo not drawn) | inactive |
| BrCCBr | active; inactive |
| O=C(c1ccccc1)C(O)c1ccccc1 (stereo not drawn) | inactive; active |
| N#CC(c1ccccc1)c1ccccc1 | inactive |
| CCC(=O)C(CC(C)N(C)C)(c1ccccc1)c1ccccc1 (stereo not drawn) | inactive |
| O=C(CCl)c1ccccc1 | inactive; active |
| CC1CCC(C(C)C)C(O)C1 (stereo not drawn) | inactive |
| O=C1C(O)N=C(c2ccccc2F)c2cc(Cl)ccc2N1CCO (stereo not drawn) | inactive |
| C[C@H]([C@H](O)CCC(C)(C)O)[C@H]1CC[C@@]2(O)C3=CC(=O)[C@@H]4C[C@@H](O)[C@@H](O)C[C@]4(C)[C@H]3CC[C@]12C | active; inactive |
| C1N2CN3CN1CN(C2)C3 | inactive; active |
| CC(C)NCC(O)c1ccc(NS(C)(=O)=O)cc1 (stereo not drawn) | inactive |
| O=NN1CCC[C@H]1C(=O)O | inactive |

| Compound | outcome |
| --- | --- |
| CC(/C=C/C=C(\C)C(=O)O[C@@H]1O[C@H](CO[C@@H]2O[C@H](CO)[C@@H](O)[C@H](O)[C@H]2O)[C@@H](O)[C@H](O)[C@H]1O)=C\C=C\C=C(C)\C=C\C=C(/C)C(=O)O[C@@H]1O[C@H](CO[C@@H]2O[C@H](CO)[C@@H](O)[C@H](O)[C@H]2O)[C@@H](O)[C@H](O)[C@H]1O | inactive |
| O=C/C=C/O | active |
| OC[C@H]1O[C@@H]2O[C@H]3[C@H](O)[C@@H](O)[C@@H](O[C@H]4[C@H](O)[C@@H](O)[C@@H](O[C@H]5[C@H](O)[C@@H](O)[C@@H](O[C@H]6[C@H](O)[C@@H](O)[C@@H](O[C@H]7[C@H](O)[C@@H](O)[C@@H](O[C@H]8[C@H](O)[C@@H](O)[C@@H](O[C@H]1[C@H](O)[C@H]2O)O[C@@H]8CO)O[C@@H]7CO)O[C@@H]6CO)O[C@@H]5CO)O[C@@H]4CO)O[C@@H]3CO | inactive |
| OCCOCCOCCO | inactive |
| CC(=O)NN | active |
| Nc1cc(S(=O)(=O)[O-])cc2cc(S(=O)(=O)[O-])c(N=Nc3ccc(-c4ccc(N=Nc5c(S(=O)(=O)[O-])cc6cc(S(=O)(=O)[O-])cc(N)c6c5O)c(O)c4)cc3O)c(O)c12.[Cu].[Cu].[Na+].[Na+].[Na+].[Na+] | active; inactive |
| O=P(OCCCl)(OCCCl)OCCCl | active |
| S=C(S)NCCNC(=S)S | inactive |
| C=C(C)[C@H]1CC=C(C)C(=O)C1 | inactive; active |
| NCCCC(N)(C(=O)O)C(F)F (stereo not drawn) | inactive |
| C=C(C)C#N | inactive |
| CCCc1cc(=O)[nH]c(=S)[nH]1 | active |
| O=NN1CC=CCC1 | active |
| O=[N+]([O-])c1ccc(-c2cnc3ccccn23)o1 | active |
| Nc1c(Br)cc(Br)c2c1C(=O)c1ccccc1C2=O | active |
| CN(C)CCN(Cc1cccs1)c1ccccn1 | active |
| CC(C)OC(=O)Nc1ccccc1 | inactive; active |
| Oc1ccc(-c2ccccc2)cc1 | inactive; active |
| Nc1ccc(-c2ccc(N)c(N)c2)cc1N | active |
| CN(N=O)c1ccc(N=O)cc1 | active |
| CN(C)c1ccc(C(=C2C=CC(=[N+](C)C)C=C2)c2ccc(N(C)C)cc2)cc1 | active; inactive |
| Nc1ccc(Nc2ccccc2)cc1 | inactive |
| CNCc1ccc(CSCCNC(=NCC(O)c2ccc(O)cc2)NS(C)(=O)=O)o1 (stereo not drawn) | active; inactive |
| O=S(=O)([O-])[O-].[O]=[V+2] | inactive |

| Compound | outcome |
| --- | --- |
| CCOc1ccc(NC(N)=O)cc1 | active |
| CC1(C)OC(=O)NC1=O | inactive |
| CCC1C(=O)OCC1Cc1cncn1C (stereo not drawn) | inactive |
| C=CCN(CC(C)=O)N=O | active |
| Cc1ccc2ncccc2c1 | inactive |
| CNC(=S)N(C)C | active |
| O=C1CCCO1 | inactive |
| O | inactive |
| C[C@@H]1O[C@@]2(CS1)CN1CCC2CC1 | inactive |
| CCN(N)C=O | active |
| C#C[C@]1(OC(C)=O)CC[C@H]2[C@@H]3CCC4=CC(=O)CC[C@@H]4[C@H]3CC[C@@]21C | active |
| Nc1c(Cl)cc(Cl)cc1Cl | active |
| O=[N+]([O-])c1ccc(NCCO)c(OCCO)c1 | inactive |
| CN(C)Nc1nc(-c2ccc([N+](=O)[O-])o2)cs1 | active; inactive |
| CCCCOC(=O)c1ccc(O)cc1 | inactive; active |
| O=S(=O)([O-])[O-].[Cd+2] | active; inactive |
| CN(C)C(=O)Cl | active |
| CCOC(=O)C(O)(c1ccc(Cl)cc1)c1ccc(Cl)cc1 | active |
| NC(=S)C(N)=S | inactive |
| OCCOCCO | active |
| NC(=O)NNc1ccccc1 | active; inactive |
| CN(C)c1ccc(N=Nc2ccccc2)cc1 | active |
| CC(Oc1ccc(Cl)cc1Cl)C(=O)O (stereo not drawn) | inactive |
| O=S(O)S(=O)(=O)O | inactive |

| Compound | outcome |
| --- | --- |
| COc1ccc(O)cc1 | active |
| c1ccc2n[nH]nc2c1 | inactive |
| Nc1ccc2c(n1)[nH]c1ccccc12 | active |
| Cc1ccc(C)c(N)c1 | active |
| NCCCCCC(=O)O | inactive; active |
| OC[C@@H](O)[C@@H](O)[C@H](O)[C@H](O)CO | inactive |
| CC[N+](=O)[O-] | inactive |
| COc1c2occc2cc2ccc(=O)oc12 | active |
| C=C1CC[C@H](O)C/C1=C/C=C1\CCC[C@]2(C)[C@@H]([C@H](C)/C=C/[C@H](C)C(C)C)CC[C@@H]12 | inactive |
| C[C@@H]1C[C@H]2[C@@H]3CCC4=CC(=O)C=C[C@]4(C)[C@@]3(F)[C@@H](O)C[C@]2(C)[C@@]1(O)C(=O)CO | inactive |
| CN(CC(O)CO)N=O (stereo not drawn) | active |
| COCCl | active; inactive |
| CC(Oc1cc(Cl)ccc1Cl)C(=O)O (stereo not drawn) | inactive |
| O=CNNC=O | active |
| CN1C(=O)C(O)N=C(c2ccccc2)c2cc(Cl)ccc21 (stereo not drawn) | inactive |
| Cc1cc(O)ccc1O | inactive; active |
| O=C1C=CC(=O)C=C1 | active |
| Nc1ccc(-c2ccc(N)c(Cl)c2)cc1Cl | active |
| OCc1ccccc1 | inactive |
| NNC(N)=O | active; inactive |
| CCCCOC(=O)COc1ccc(Cl)cc1Cl | inactive |
| O=NN(CCO)C(=O)NCCCl | active |
